Values quoted from earlier work in US6849628B2, “Optically active compounds” (The University of Strathclyde, priority 1986, dated 2005).
One block for each molecule: values may come before it.

Columns and labels:
[1] = target: T1, thymidylate synthase from L. casei (Lacticaseibacillus casei, UniProt P00469); details: Leary et al 1973
T1 sequence (P00469 1-316): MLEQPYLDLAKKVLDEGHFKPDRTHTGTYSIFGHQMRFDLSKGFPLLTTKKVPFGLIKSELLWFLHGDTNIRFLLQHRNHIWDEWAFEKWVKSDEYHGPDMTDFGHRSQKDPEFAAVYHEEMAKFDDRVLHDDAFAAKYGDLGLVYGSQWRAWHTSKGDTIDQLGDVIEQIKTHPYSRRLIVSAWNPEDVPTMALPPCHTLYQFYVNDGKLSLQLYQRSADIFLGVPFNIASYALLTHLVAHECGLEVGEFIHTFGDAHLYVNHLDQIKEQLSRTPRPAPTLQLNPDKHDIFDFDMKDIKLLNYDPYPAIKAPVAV

[2] = target: 5,10-methylene tetrahydrofolate dehydrogenase from E. coli (Escherichia coli, UniProt P24186); details: Scott and Donaldson 1964
[3] = target: T2, glycinamide ribonucleotide (GAR) formyl-transferase from chicken liver (Gallus gallus, UniProt P21872); details: Smith, Benkovic and Benkovic 1981
T2 construct: host or cells: chicken liver
T2 sequence (P21872 1-1003): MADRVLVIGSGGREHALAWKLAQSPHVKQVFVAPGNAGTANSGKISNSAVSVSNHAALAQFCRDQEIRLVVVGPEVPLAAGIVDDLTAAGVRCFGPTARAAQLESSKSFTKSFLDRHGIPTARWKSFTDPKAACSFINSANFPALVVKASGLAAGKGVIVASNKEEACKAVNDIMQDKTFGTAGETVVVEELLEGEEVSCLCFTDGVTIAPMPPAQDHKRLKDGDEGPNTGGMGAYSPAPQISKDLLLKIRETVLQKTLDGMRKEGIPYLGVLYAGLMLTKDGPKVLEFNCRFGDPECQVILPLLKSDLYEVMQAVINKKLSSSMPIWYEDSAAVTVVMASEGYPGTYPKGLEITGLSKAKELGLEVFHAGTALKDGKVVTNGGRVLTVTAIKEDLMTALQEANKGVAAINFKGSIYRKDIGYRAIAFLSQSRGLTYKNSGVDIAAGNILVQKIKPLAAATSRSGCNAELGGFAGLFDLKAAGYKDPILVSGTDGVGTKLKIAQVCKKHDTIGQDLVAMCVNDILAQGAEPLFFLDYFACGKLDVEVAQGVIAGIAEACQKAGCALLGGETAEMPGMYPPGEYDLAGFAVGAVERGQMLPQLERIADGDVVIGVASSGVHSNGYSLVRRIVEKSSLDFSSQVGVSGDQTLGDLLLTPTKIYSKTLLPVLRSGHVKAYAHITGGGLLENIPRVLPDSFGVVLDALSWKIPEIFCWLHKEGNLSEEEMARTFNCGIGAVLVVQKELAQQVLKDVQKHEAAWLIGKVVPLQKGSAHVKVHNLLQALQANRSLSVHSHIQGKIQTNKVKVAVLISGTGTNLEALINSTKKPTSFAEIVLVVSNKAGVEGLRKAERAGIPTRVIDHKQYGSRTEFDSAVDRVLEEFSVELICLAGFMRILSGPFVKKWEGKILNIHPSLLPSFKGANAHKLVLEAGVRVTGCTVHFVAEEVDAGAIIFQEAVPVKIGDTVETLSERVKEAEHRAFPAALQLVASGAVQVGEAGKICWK

one-carbon metabolism = details: Montgomery et al 1981; only the (6S) diastereoisomer is effective

Molecule: Nc1nc2c(c(=O)[nH]1)N1CN(c3ccc(C(=O)N[C@@H](CCC(=O)O)C(=O)O)cc3)CC1CN2 (single isomer, unassigned) [non-natural diastereoisomer of 5,10-methylene tetrahydrofolate, 5,10-methylene tetrahydrofolate]
inhibition of thymidylate synthase [1]: inhibited
inhibition of 5,10-methylene tetrahydrofolate dehydrogenase [2]: inhibited

inhibition of GAR formyl-transferase [3]: potent competitive inhibitor
Molecule: Nc1nc2c(c(=O)[nH]1)NC(CN(C=O)c1ccc(C(=O)N[C@@H](CCC(=O)O)C(=O)O)cc1)CN2 (single isomer, unassigned) [non-natural diastereoisomer of 10-formyltetrahydrofolate, 10-formyltetrahydrofolate]

Molecule: calcium 5-formyl-(6S) tetrahydrofolate [Ib]
effectiveness in restoring one-carbon metabolism (one-carbon metabolism): effective in restoring one-carbon metabolism
